ChEMBL document CHEMBL5465560, “Selectivity Literature for EUbOPEN Chemogenomic Library” (2024)

Assays:
[1] = molecular target: T1, Histone-arginine methyltransferase CARM1 (Homo sapiens, UniProt Q86X55); experiment: Selectivity interaction (Western blot assay (PRMT4 dependent BAF155 asymmetric arginine dimethylation)) EUB0000236b CARM1
T1 sequence (Q86X55 whole entry): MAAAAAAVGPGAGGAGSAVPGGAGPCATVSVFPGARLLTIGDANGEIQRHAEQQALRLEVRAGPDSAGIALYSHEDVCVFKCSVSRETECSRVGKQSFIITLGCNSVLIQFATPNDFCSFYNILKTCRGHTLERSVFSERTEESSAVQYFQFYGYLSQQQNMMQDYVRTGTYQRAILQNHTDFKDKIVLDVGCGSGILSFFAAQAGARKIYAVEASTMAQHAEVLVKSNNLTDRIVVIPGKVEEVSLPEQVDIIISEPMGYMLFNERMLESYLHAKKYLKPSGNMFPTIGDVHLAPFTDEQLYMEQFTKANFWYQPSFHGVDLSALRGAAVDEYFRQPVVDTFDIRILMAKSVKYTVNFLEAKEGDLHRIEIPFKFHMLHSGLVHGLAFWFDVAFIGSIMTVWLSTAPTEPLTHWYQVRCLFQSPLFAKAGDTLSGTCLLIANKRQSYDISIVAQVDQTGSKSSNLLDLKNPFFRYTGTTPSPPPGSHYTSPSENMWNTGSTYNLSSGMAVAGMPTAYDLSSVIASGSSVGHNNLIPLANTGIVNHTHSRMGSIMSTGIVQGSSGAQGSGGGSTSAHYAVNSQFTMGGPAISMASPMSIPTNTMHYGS

[2] = molecular target: Protein arginine N-methyltransferase 5 (Homo sapiens, UniProt O14744); experiment: Selectivity interaction (Western blot assay (PRMT5 dependent SmB symmetric arginine dimethylation)) EUB0000236b PRMT5
[3] = molecular target: Protein arginine N-methyltransferase 1 (Homo sapiens, UniProt Q99873); experiment: Selectivity interaction (Western blot assay (PRMT1 dependent H4R3 asymmetric arginine dimethylation)) EUB0000236b PRMT1
[4] = molecular target: Protein arginine N-methyltransferase 6 (Homo sapiens, UniProt Q96LA8); experiment: Selectivity interaction (Western blot assay (PRMT6 dependent H4R3 asymmetric arginine dimethylation)) EUB0000236b PRMT6
[5] = molecular target: T2, Protein arginine N-methyltransferase 9 (Homo sapiens, UniProt Q6P2P2); experiment: Selectivity interaction (Western blot assay (PRMT9 dependent SAP145 […] arginine dimethylation)) EUB0000236b PRMT9
T2 sequence (Q6P2P2 whole entry): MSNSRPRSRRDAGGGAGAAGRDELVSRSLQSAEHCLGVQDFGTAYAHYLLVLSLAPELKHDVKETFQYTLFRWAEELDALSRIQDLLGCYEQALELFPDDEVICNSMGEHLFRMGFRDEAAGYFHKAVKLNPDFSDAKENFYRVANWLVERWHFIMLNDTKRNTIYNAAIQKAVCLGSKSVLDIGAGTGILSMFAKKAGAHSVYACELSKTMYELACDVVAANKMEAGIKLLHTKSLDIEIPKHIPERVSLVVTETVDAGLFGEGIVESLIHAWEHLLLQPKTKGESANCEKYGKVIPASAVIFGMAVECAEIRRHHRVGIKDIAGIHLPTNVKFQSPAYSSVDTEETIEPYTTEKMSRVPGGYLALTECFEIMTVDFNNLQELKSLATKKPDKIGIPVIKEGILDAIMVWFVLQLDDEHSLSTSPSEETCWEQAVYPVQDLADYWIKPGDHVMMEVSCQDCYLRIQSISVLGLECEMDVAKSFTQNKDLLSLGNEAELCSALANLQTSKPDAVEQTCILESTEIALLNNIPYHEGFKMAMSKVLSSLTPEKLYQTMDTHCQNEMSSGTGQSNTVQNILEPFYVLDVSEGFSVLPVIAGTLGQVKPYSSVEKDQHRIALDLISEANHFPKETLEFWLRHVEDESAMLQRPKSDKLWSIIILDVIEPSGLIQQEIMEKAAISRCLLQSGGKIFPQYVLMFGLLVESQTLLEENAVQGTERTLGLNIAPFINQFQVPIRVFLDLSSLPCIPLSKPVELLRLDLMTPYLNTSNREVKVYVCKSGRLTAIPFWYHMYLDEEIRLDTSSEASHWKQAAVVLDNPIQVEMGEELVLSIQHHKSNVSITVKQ

[6] = molecular target: Histone-lysine N-methyltransferase, H3 lysine-79 specific (Homo sapiens, UniProt Q8TEK3); experiment: Selectivity interaction (Western blot assay (DOT1L dependent H3K79 lysine dimethylation) ) EUB0000236b DOT1L
[7] = molecular target: T3, Tyrosine-protein kinase ABL2 (Homo sapiens, UniProt P42684); experiment: (§1) Selectivity interaction (Radiometric assay (Reaction Biology)) EUB0000121b ABL2; conditions: at 10 µM
[8] = molecular target: T3, Tyrosine-protein kinase ABL2; experiment: as §1
[9] = molecular target: Calcium/calmodulin-dependent protein kinase type IV (Homo sapiens, UniProt Q16566); experiment: Selectivity interaction (Radiometric assay (Reaction Biology)) EUB0000121b CAMK4
[10] = molecular target: CDK1/Cyclin E (Homo sapiens) (UniProt P06493+P24864); experiment: Selectivity interaction (NanoBRET assay in HEK293T cells) EUB0000121b CDK1; assay type: cell-based; conditions: HEK-293T, at 10 µM
[11] = molecular target: CDK10/Cyclin L2 (Homo sapiens) (UniProt Q15131+Q96S94); experiment: Selectivity interaction (NanoBRET assay in HEK293T cells) EUB0000121b CDK10; assay type: cell-based; conditions: HEK-293T, at 10 µM
[12] = molecular target: CDK11A/Cyclin L2 (Homo sapiens) (UniProt Q9UQ88+Q96S94); experiment: Selectivity interaction (NanoBRET assay in HEK293T cells) EUB0000121b CDK11A; assay type: cell-based; conditions: HEK-293T, at 10 µM
[13] = molecular target: CDK11B/Cyclin L2 (Homo sapiens) (UniProt P21127+Q96S94); experiment: Selectivity interaction (NanoBRET assay in HEK293T cells) EUB0000121b CDK11B; assay type: cell-based; conditions: HEK-293T, at 10 µM
[14] = molecular target: CDK12/Cyclin K (Homo sapiens) (UniProt O75909+Q9NYV4); experiment: Selectivity interaction (NanoBRET assay in HEK293T cells) EUB0000121b CDK12; assay type: cell-based; conditions: HEK-293T, at 10 µM
[15] = molecular target: Cyclin-dependent kinase 13/Cyclin-K (Homo sapiens) (UniProt Q14004+O75909); experiment: Selectivity interaction (NanoBRET assay in HEK293T cells) EUB0000121b CDK13; assay type: cell-based; conditions: HEK-293T, at 10 µM
[16] = molecular target: Cyclin-dependent kinase 14/Cyclin-Y (Homo sapiens) (UniProt O94921+Q8ND76); experiment: Selectivity interaction (NanoBRET assay in HEK293T cells) EUB0000121b CDK14; assay type: cell-based; conditions: HEK-293T, at 10 µM
[17] = molecular target: CDK15/Cyclin Y (Homo sapiens) (UniProt Q96Q40+Q8ND76); experiment: Selectivity interaction (NanoBRET assay in HEK293T cells) EUB0000121b CDK15; assay type: cell-based; conditions: HEK-293T, at 10 µM
[18] = molecular target: Cyclin-Y/Cyclin-dependent kinase 16 (Homo sapiens) (UniProt Q00536+Q8ND76); experiment: Selectivity interaction (NanoBRET assay in HEK293T cells) EUB0000121b CDK16; assay type: cell-based; conditions: HEK-293T, at 10 µM
[19] = molecular target: CDK17/Cyclin-Y (Homo sapiens) (UniProt Q00537+Q8ND76); experiment: Selectivity interaction (NanoBRET assay in HEK293T cells) EUB0000121b CDK17; assay type: cell-based; conditions: HEK-293T, at 10 µM
[20] = molecular target: CDK18/Cyclin Y (Homo sapiens) (UniProt Q07002+Q8ND76); experiment: Selectivity interaction (NanoBRET assay in HEK293T cells) EUB0000121b CDK18; assay type: cell-based; conditions: HEK-293T, at 10 µM
[21] = molecular target: Cyclin-C/Cyclin-dependent kinase 19 (Homo sapiens) (UniProt Q9BWU1+P24863); experiment: Selectivity interaction (NanoBRET assay in HEK293T cells) EUB0000121b CDK19; assay type: cell-based; conditions: HEK-293T, at 10 µM
[22] = molecular target: Cyclin-dependent kinase 2/cyclin E1 (Homo sapiens) (UniProt P24864+P24941); experiment: Selectivity interaction (NanoBRET assay in HEK293T cells) EUB0000121b CDK2; assay type: cell-based; conditions: HEK-293T, at 10 µM
[23] = molecular target: Cyclin-dependent kinase 2/cyclin A (Homo sapiens, UniProt P24941); experiment: Selectivity interaction (LanthaScreen Eu Kinase Binding Assay (Invitrogen)) EUB0000121b CDK2; assay type: protein-complex assay
[24] = molecular target: CDK20/Cyclin H (Homo sapiens) (UniProt P51946+Q8IZL9); experiment: Selectivity interaction (NanoBRET assay in HEK293T cells) EUB0000121b CDK20; assay type: cell-based; conditions: HEK-293T, at 10 µM
[25] = molecular target: CDK3/Cyclin E (Homo sapiens) (UniProt P24864+Q00526); experiment: Selectivity interaction (NanoBRET assay in HEK293T cells) EUB0000121b CDK3; assay type: cell-based; conditions: HEK-293T, at 10 µM
[26] = molecular target: Cyclin-dependent kinase 4/cyclin D1 (Homo sapiens) (UniProt P11802+P24385); experiment: Selectivity interaction (NanoBRET assay in HEK293T cells) EUB0000121b CDK4; assay type: cell-based; conditions: HEK-293T, at 10 µM
[27] = molecular target: Cyclin-dependent kinase 5/CDK5 activator 1 (Homo sapiens) (UniProt Q00535+Q15078); experiment: Selectivity interaction (NanoBRET assay in HEK293T cells) EUB0000121b CDK5; assay type: cell-based; conditions: HEK-293T, at 10 µM
[28] = molecular target: CDK6/cyclin D1 (Homo sapiens) (UniProt P24385+Q00534); experiment: Selectivity interaction (NanoBRET assay in HEK293T cells) EUB0000121b CDK6; assay type: cell-based; conditions: HEK-293T, at 10 µM
[29] = molecular target: CDK6/cyclin D3 (Homo sapiens, UniProt Q00534); experiment: Selectivity interaction ( In-vitro potency (TR-FRET-based LANCE Ultra assay)) EUB0000121b CDK6; assay type: protein-complex assay
[30] = molecular target: Cyclin-dependent kinase 7 (Homo sapiens, UniProt P50613); experiment: Selectivity interaction (NanoBRET assay in HEK293T cells) EUB0000121b CDK7; assay type: cell-based; conditions: HEK-293T, at 10 µM
[31] = molecular target: T4, CDK7/Cyclin H/MNAT1 (Homo sapiens, UniProt P50613); experiment: Selectivity interaction (LanthaScreen Eu Kinase Binding Assay (Invitrogen)) EUB0000121b CDK7; assay type: protein-complex assay
[32] = molecular target: T4, CDK7/Cyclin H/MNAT1; experiment: Selectivity interaction ( In-vitro potency (TR-FRET-based LANCE Ultra assay)) EUB0000121b CDK7; assay type: protein-complex assay
[33] = molecular target: CDK8/Cyclin C (Homo sapiens) (UniProt P49336+P24863); experiment: Selectivity interaction (NanoBRET assay in HEK293T cells) EUB0000121b CDK8; assay type: cell-based; conditions: HEK-293T, at 10 µM
[34] = molecular target: CDK9/Cyclin K (Homo sapiens) (UniProt P50750+O75909); experiment: Selectivity interaction (NanoBRET assay in HEK293T cells) EUB0000121b CDK9; assay type: cell-based; conditions: HEK-293T, at 10 µM
[35] = molecular target: T5, Glycogen synthase kinase-3 alpha (Homo sapiens, UniProt P49840); experiment: (§2) Selectivity interaction (Radiometric assay (Reaction Biology)) EUB0000121b GSK3A; conditions: at 10 µM
Target sequence in this assay (P49840 2-483 limits assumed): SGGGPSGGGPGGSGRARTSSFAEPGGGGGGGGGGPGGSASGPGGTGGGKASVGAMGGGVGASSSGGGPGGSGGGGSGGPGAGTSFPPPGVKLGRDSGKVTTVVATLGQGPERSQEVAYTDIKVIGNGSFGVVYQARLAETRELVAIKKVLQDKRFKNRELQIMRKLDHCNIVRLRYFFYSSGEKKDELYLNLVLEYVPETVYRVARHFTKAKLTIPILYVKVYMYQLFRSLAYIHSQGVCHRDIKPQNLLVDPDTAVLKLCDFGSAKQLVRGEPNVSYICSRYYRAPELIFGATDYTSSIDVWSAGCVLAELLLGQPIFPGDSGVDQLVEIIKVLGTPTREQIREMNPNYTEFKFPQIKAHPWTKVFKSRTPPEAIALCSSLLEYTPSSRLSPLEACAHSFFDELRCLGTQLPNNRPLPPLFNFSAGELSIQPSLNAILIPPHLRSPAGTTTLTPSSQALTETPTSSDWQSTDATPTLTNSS

[36] = molecular target: T5, Glycogen synthase kinase-3 alpha; experiment: as §2
Target sequence in this assay (P49840 whole entry): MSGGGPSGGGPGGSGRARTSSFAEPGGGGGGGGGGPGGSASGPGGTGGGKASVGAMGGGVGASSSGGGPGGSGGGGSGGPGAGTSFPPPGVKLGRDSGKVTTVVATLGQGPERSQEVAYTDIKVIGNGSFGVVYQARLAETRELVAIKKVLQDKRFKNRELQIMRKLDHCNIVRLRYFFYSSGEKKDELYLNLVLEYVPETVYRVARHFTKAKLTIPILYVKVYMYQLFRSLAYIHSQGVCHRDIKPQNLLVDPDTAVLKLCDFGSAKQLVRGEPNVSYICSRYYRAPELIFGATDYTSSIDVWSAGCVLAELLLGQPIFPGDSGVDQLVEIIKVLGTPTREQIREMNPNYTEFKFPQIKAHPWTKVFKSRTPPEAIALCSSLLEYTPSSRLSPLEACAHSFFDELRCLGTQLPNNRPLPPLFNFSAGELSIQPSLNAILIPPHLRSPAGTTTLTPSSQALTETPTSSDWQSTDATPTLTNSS

[37] = molecular target: T6, Mitogen-activated protein kinase kinase kinase kinase 4 (Homo sapiens, UniProt O95819); experiment: (§3) Selectivity interaction (Radiometric assay (Reaction Biology)) EUB0000121b MAP4K4; conditions: at 10 µM
[38] = molecular target: T6, Mitogen-activated protein kinase kinase kinase kinase 4; experiment: as §3

T4 sequence (P51946 whole entry): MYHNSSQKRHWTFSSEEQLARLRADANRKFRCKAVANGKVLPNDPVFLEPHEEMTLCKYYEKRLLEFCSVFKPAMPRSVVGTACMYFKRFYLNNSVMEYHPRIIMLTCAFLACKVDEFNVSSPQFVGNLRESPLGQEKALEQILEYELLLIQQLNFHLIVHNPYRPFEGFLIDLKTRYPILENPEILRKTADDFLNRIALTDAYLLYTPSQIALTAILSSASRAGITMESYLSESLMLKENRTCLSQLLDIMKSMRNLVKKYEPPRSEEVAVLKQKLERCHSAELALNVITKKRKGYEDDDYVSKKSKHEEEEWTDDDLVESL
T4 sequence (P50613 whole entry): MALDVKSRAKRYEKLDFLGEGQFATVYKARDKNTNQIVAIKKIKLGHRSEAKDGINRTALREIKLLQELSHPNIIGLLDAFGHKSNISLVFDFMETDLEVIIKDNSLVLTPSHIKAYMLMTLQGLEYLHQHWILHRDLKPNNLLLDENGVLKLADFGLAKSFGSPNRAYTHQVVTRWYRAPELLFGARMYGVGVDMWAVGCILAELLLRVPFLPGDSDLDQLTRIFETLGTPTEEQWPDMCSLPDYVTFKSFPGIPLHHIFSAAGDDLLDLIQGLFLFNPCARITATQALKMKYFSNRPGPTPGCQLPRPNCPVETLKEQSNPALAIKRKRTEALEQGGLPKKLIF
T4 sequence (P51948 whole entry, further chain): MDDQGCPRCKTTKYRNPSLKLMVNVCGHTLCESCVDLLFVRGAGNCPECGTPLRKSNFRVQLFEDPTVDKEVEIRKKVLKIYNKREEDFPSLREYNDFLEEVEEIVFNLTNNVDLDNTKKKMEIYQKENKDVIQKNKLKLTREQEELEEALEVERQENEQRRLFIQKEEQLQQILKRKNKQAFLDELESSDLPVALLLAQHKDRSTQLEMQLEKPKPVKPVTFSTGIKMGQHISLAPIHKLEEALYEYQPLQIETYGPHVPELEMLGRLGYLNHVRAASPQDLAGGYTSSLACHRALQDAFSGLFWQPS
T3 sequence (P42684 whole entry): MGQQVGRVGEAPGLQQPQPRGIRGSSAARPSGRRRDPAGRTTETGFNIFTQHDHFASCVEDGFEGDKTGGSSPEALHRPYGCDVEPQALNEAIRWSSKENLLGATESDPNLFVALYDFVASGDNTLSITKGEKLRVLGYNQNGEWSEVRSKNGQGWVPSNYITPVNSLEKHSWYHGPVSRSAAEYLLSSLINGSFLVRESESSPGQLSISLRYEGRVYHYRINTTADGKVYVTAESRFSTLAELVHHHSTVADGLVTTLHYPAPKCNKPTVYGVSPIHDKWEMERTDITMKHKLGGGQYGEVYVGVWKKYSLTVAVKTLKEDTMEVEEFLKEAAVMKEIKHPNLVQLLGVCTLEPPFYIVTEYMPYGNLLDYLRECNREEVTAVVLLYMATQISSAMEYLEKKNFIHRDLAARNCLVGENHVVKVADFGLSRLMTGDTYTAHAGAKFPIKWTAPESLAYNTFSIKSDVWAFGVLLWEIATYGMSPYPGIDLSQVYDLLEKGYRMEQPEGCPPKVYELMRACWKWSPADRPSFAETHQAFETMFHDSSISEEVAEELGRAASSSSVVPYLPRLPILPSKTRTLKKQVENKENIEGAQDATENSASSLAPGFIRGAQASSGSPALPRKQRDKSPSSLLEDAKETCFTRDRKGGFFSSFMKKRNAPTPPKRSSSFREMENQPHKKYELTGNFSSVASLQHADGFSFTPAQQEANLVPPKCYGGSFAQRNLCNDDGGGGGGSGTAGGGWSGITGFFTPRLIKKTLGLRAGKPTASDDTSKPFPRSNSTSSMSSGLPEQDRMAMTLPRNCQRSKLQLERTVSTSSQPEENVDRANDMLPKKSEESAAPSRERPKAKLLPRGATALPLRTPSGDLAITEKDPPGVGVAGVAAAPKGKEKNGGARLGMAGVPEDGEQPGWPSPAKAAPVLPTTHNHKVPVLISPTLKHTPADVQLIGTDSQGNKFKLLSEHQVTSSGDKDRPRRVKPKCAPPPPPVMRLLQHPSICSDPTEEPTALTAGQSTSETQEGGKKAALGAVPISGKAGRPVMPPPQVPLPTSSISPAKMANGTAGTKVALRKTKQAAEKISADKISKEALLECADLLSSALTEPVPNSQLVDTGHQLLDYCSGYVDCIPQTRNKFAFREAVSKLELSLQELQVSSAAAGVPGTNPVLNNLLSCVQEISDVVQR
Chain of CDK17/Cyclin-Y (Homo sapiens) (Q00537 whole entry): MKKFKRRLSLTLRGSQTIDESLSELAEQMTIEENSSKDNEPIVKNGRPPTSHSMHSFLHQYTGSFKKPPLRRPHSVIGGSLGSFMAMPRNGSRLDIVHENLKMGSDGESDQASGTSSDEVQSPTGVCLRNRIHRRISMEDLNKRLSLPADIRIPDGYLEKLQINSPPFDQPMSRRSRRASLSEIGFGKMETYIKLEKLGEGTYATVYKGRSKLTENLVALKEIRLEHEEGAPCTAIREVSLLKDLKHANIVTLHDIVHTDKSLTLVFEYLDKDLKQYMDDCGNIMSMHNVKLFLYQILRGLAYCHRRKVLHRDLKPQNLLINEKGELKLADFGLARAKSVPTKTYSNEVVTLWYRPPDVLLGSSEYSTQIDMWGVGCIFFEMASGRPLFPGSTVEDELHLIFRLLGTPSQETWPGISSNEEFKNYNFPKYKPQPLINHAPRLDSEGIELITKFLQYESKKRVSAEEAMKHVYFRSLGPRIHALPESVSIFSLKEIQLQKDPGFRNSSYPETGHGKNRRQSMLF
Chain of CDK17/Cyclin-Y (Homo sapiens) (Q8ND76 2-341 partner limits assumed): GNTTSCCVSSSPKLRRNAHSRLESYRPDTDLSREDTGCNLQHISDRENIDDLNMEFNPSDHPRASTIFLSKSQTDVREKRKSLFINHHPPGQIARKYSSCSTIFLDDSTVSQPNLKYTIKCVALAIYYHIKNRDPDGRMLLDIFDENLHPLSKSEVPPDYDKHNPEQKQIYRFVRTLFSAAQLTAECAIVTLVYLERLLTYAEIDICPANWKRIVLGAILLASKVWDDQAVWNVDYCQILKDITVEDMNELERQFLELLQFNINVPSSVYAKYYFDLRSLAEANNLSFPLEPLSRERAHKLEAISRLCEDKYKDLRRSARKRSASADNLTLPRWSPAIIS
Chain of Protein arginine N-methyltransferase 6 (Q96LA8 whole entry): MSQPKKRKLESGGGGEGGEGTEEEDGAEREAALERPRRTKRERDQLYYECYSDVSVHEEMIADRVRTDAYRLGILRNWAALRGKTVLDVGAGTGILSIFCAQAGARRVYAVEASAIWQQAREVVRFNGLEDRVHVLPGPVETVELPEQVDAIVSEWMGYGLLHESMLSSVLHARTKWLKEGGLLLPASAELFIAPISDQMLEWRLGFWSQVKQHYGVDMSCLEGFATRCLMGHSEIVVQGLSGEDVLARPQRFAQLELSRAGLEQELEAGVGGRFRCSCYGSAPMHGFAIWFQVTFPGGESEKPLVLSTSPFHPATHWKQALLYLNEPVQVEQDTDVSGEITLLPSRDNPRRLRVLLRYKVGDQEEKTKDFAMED
Chain of Protein arginine N-methyltransferase 5 (O14744 whole entry): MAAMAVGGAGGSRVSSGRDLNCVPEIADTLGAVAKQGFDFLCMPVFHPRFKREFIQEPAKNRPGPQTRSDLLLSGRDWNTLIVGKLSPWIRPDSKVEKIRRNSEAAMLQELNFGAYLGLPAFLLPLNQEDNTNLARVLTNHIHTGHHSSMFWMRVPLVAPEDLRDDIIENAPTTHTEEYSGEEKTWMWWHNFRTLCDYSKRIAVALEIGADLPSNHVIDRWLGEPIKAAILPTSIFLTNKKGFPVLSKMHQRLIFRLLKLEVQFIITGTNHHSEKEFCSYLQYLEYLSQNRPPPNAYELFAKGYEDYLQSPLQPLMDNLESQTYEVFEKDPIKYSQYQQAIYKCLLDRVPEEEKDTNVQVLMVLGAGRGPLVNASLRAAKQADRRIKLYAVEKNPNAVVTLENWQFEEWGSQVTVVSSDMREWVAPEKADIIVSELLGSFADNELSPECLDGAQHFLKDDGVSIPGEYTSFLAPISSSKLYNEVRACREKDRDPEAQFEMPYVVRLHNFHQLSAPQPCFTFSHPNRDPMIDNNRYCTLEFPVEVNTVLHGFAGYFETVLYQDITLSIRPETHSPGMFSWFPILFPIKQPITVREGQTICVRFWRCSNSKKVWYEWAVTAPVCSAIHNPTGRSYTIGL

CC1=C(C)C(=O)C(C(C)(C)CC(=O)N(CCCCSC[C@H]2O[C@@H](n3cnc4c(N)ncnc43)[C@@H]3OC(C)(C)O[C@@H]32)Cc2cccc(-c3ccc(Cl)cc3)c2)=C(C)C1=O
EC50 [1]: > 0.005 µM
EC50 [2]: > 0.005 µM
EC50 [3]: > 0.005 µM
EC50 [4]: > 0.005 µM
EC50 [5]: > 0.005 µM
EC50 [6]: > 0.005 µM

COc1ccccc1-c1cc(Nc2cccc(CS(N)(=O)=O)c2)ncn1
% of control [7]: 27%
IC50 [8]: 3.64 µM
IC50 [9]: > 20 µM
% of inhibition [10]: 31.6%
% of inhibition [11]: 6.6%
% of inhibition [12]: 7.5%
% of inhibition [13]: 10.2%
% of inhibition [14]: 22.1%
% of inhibition [15]: 10.2%
% of inhibition [16]: -2.3%
% of inhibition [17]: -1%
% of inhibition [18]: 14.8%
% of inhibition [19]: 19%
% of inhibition [20]: 8.7%
% of inhibition [21]: 11.4%
% of inhibition [22]: 18.7%
IC50 [23]: 1.01 µM
% of inhibition [24]: 14.5%
% of inhibition [25]: 27.7%
% of inhibition [26]: 44%
% of inhibition [27]: 11.4%
% of inhibition [28]: 38.7%
IC50 [29]: > 10 µM
% of inhibition [30]: -9.3%
IC50 [31]: 16 µM
IC50 [32]: > 10 µM
% of inhibition [33]: 5.3%
% of inhibition [34]: 88.8%
% of control [35]: 9.5%
IC50 [36]: 1.46 µM
% of control [37]: 17.5%
IC50 [38]: 0.82 µM
